According to ChEMBL document CHEMBL4834443, “Identification of bioactive compounds from mulberry enhancing glucose-stimulated insulin secretion” (Bioorg Med Chem Lett, 2021):
Activity calls are given as the source filed them. No cut-off for these calls is given here.

Assays:
INS1 [1] = experiment: Cytotoxicity against rat INS1 cells assessed as cell viability at 1 to 10 uM measured after 24 hrs by MTT assay; format: cell-based; details: ins1, 24 h, dose 1-10 µM
INS1 [2] = experiment: Stimulation of glucose stimulated insulin secretion in rat INS1 cells assessed as glucose stimulation index at 5 uM in presence of glucose measured after 1 hr; format: functional
INS1 [3] = experiment: Induction of insulin secretion in rat INS1 cells assessed as increase in phosphorylation of PI3K at 2.5 uM measured after 24 hrs by western blot assay; format: functional, cell-based
INS1 [4] = experiment: Induction of insulin secretion in rat INS1 cells assessed as increase in PDX-1 expression at 2.5 uM measured after 24 hrs by western blot assay; format: functional, cell-based
INS1 [5] = experiment: Induction of insulin secretion in rat INS1 cells assessed as increase in phosphorylation of AKT at Ser 473 at 2.5 uM measured after 24 hrs by western blot assay; format: functional, cell-based
INS1 [6] = experiment: Induction of insulin secretion in rat INS1 cells assessed as increase in PI3K expression at 2.5 uM measured after 24 hrs by western blot assay; format: functional, cell-based
INS1 [7] = experiment: Induction of insulin secretion in rat INS1 cells assessed as increase in phosphorylation of IRS 2 at Ser 731 at 2.5 uM measured after 24 hrs by western blot assay; format: functional, cell-based
INS1 [8] = experiment: Induction of insulin secretion in rat INS1 cells assessed as increase in AKT expression at 2.5 uM measured after 24 hrs by western blot assay; format: functional, cell-based
INS1 [9] = experiment: Stimulation of glucose stimulated insulin secretion in rat INS1 cells assessed as glucose stimulation index at 2.5 uM in presence of glucose measured after 1 hr; format: functional
INS1 [10] = experiment: Induction of insulin secretion in rat INS1 cells assessed as increase in IRS-2 expression at 2.5 uM measured after 24 hrs by western blot assay; format: functional, cell-based
INS1 [11] = experiment: Cytotoxicity against rat INS1 cells assessed as cell viability at 10 uM measured after 24 hrs by MTT assay; format: cell-based; details: ins1, 24 h
INS1 [12] = experiment: Induction of insulin secretion in rat INS1 cells assessed as increase in PI3K expression at 5 uM measured after 24 hrs by western blot assay; format: functional, cell-based
INS1 [13] = experiment: Induction of insulin secretion in rat INS1 cells assessed as increase in phosphorylation of AKT at Ser 473 at 5 uM measured after 24 hrs by western blot assay; format: functional, cell-based
INS1 [14] = experiment: Induction of insulin secretion in rat INS1 cells assessed as increase in phosphorylation of PI3K at 5 uM measured after 24 hrs by western blot assay; format: functional, cell-based
INS1 [15] = experiment: Induction of insulin secretion in rat INS1 cells assessed as increase in AKT expression at 5 uM measured after 24 hrs by western blot assay; format: functional, cell-based
INS1 [16] = experiment: Induction of insulin secretion in rat INS1 cells assessed as increase in PDX-1 expression at 5 uM measured after 24 hrs by western blot assay; format: functional, cell-based
INS1 [17] = experiment: Induction of insulin secretion in rat INS1 cells assessed as increase in IRS-2 expression at 5 uM measured after 24 hrs by western blot assay; format: functional, cell-based
INS1 [18] = experiment: Induction of insulin secretion in rat INS1 cells assessed as increase in phosphorylation of IRS 2 at Ser 731 at 5 uM measured after 24 hrs by western blot assay; format: functional, cell-based

COC(=O)[C@@H]1CCC(=O)N1
Activity (INS1 [1]): Non-Toxic

C[C@@H](C(=O)O)[C@H]1CCO[C@]1(C)O
Activity (INS1 [1]): Non-Toxic

O=Cc1coc2ccccc12
Activity (INS1 [1]): Non-Toxic

O=C1CC[C@@H](O)N1
Activity_index (INS1 [2]): 11.31 | Activity (INS1 [3]): Active | Activity (INS1 [4]): Active | Activity (INS1 [1]): Non-Toxic | Activity (INS1 [5]): Active | Activity (INS1 [6]): Active | Activity (INS1 [7]): Active | Activity (INS1 [8]): Active | Activity_index (INS1 [9]): 6.57 | Activity (INS1 [10]): Active

Cc1ccc(S(=O)(=O)NC(=O)NN2CC3CCCC3C2)cc1 (configuration not stated) [GLICLAZIDE]
Activity_index (INS1 [2]): 3.47 | Activity_index (INS1 [9]): 2.46 | Activity (INS1 [11]): Toxic

c1ccc2[nH]ccc2c1 [INDOLE]
Activity (INS1 [12]): Active | Activity (INS1 [13]): Active | Activity_index (INS1 [2]): 7.72 | Activity (INS1 [14]): Active | Activity (INS1 [15]): Active | Activity (INS1 [1]): Non-Toxic | Activity (INS1 [16]): Active | Activity (INS1 [17]): Active | Activity (INS1 [18]): Active | Activity_index (INS1 [9]): 3.31

CC1(C)C[C@H](O)C[C@@]2(C)OC(=O)C=C12 [LOLIOLIDE]
Activity (INS1 [1]): Non-Toxic
